In patent US20080242674A1, “Medicine For Prevention or Treatment of Frequent Urination or Urinary Incontinence” (priority 2004, published 2008):
Where a name gives a salt, the structure may show the parent alone.

Columns and labels:
anesthetized rats = experiment: Intra-bladder pressure measurement in anesthetized rat; assay type: in vivo; settings: male rats, urethane anesthesia, after midodorin hydrochloride 3 mg/kg iv, isoproterenol 10 mg/kg iv = 100%
Source text: Male rats were anesthetized with urethane. To each rat, tracheal and femoral vein cannulas were inserted. After midline abdominal incision, the ureter on either side was ligated and cut at the proximal end of the ligated portion. After the urethra was ligated, a cannula was inserted into the urinary bladder through the top of the bladder dome. Through a three-way connecter, warmed saline was instilled to adjust the intra-bladder pressure to about 10 cmH2O. The other end of the bladder cannula was connected to a pressure transducer, and intra-bladder pressure was measured. Three mg/kg of midodorin hydrochloride was injected through the femoral vein cannula. Ten minutes after the midodorin hydrochloride injection, tamsulosin hydrochloride (5 mg/kg, iv) or compound 1 (10 mg/kg, iv) was intravenously injected, and the decreasing effect by single administration of each drug was evaluated. Next, 15 minutes after administration, compound 1 (10 mg/kg, iv) was intravenously injected to the animal treated with tamsulosin hydrochloride (5 mg/kg, iv) to evaluate the combinational effect. At the last, 10 mg/kg of isoproterenol was intravenously injected, and the maximum decreasing effect was set as 100% .

[1] = tested on: acetic acid-stimulated rats; experiment: Micturition interval measurement in acetic acid-stimulated rat; assay type: in vivo; settings: female rats, urethane anesthesia, 0.25% acetic acid instilled into the bladder, 30 minutes after administration
Source text: Female rats were anesthetized with urethane. After the midline abdominal was incised, and the ureter on either side was ligated and cut, the renal end was kept open. A cannula was inserted into the urinary bladder through the top of the bladder dome and connected to a three-way connecter to establish routes for the intra-bladder pressure measurement and instillation into the bladder. The other end of the bladder cannula was connected to a pressure transducer, and intra-bladder pressure was measured. Saline was continuously instilled into the bladder (3.6 mL/hr) . […] After stable micturition intervals were obtained, silodosin (0.03 mg/kg), (−)-2-[4-[2-[[(1S, 2R)-2-hydroxy-2-(4-hydroxyphenyl)-1-methylethyl]amino]ethyl]-2,5-dimethylphenoxy] acetic acid (hereinafter referred to as “compound 2”) (1 mg/kg) or both of silodosin (0.03 mg/kg) and compound 2 (1 mg/kg) were injected through a femoral venous cannula respectively, and time from when a micturition occurred till when the next micturition was induced (micturition interval) was measured. Mean micturition intervals for 2 times before each drug administration and for all micturition which occurred in 30 minutes after the drug administration were calculated, and the change to the mean value before administration was evaluated. […]

CCOC(=O)COc1cc(C)c(CCN[C@@H](C)[C@H](O)c2ccc(O)cc2)cc1C [compound 1, ethyl (−)-2-[4-[2-[[(1S, 2R) -2-hydroxy-2-(4-hydroxyphenyl)1-methylethyl]amino]ethyl]-2,5-dimethyl-phenoxy]acetate]
effect decreasing the intra-bladder pressure (percentage of the maximum decreasing effect by isoproterenol) (anesthetized rats; compound 1 10 mg/kg iv alone): 37%

Cc1cc(OCC(=O)O)c(C)cc1CCN[C@@H](C)[C@H](O)c1ccc(O)cc1 [compound 2, (−)-2-[4-[2-[[(1S, 2R)-2-hydroxy-2-(4-hydroxyphenyl)-1-methylethyl]amino]ethyl]-2,5-dimethylphenoxy] acetic acid]
change in the micturition interval (percentage of the mean value before administration) ([1]; compound 2 1 mg/kg iv alone): 116.3%

C[C@H](Cc1cc2c(c(C(N)=O)c1)N(CCCO)CC2)NCCOc1ccccc1OCC(F)(F)F [silodosin]
change in the micturition interval (percentage of the mean value before administration) ([1]; silodosin 0.03 mg/kg iv alone): 115.2%

CCOc1ccccc1OCCN[C@H](C)Cc1ccc(OC)c(S(N)(=O)=O)c1 [tamsulosin hydrochloride]
effect decreasing the intra-bladder pressure (percentage of the maximum decreasing effect by isoproterenol) (anesthetized rats; tamsulosin hydrochloride 5 mg/kg iv alone): 26%
